System: STZ-induced diabetic mice
Assay: Oral glucose tolerance test in STZ-induced diabetic mice
Assay type: in vivo
Details: 30 mg/kg of bw, glucose 2 g/kg of bw, vs vehicle-treated group (p < 0.05)
Method: The target compounds 11, 17, and 35 (30 mg/kg of bw) and control drugs (glibenclamide 10 mg/kg of bw) were dissolved in the vehicle (Tween-80, NaCl 0.9%). Glucose (2 g/kg of bw) was used for the glucose tolerance tests. The control mice group received only the vehicle. All cases were treated orally. Blood samples were collected from caudal vein by means of a small incision in the end of the tail. Blood glucose levels were estimated by a commercial glucometer (Bayer Contour TS). For the anti-hyperglycemic tests, blood samples were obtained 0.5, 1, 1.5, 2, and 3 h after the glucose load. Percentage variation of glycemia for each group was calculated with respect to initial (0 h) level according to: % Variation of glycemia=[(Gi−Gt)/Gi]×100% where Gi is initial glycemia values and Gt is the glycemia value after samples administration. For the anti-hyperglycemic tests, data were represented as % variation of glycemia versus time. Studies were performed in normoglycemic and STZ-induced diabetic mice.

Row | SMILES | postprandial glycemia peak in oral glucose tolerance test
1 | COc1ccc(-c2cc3c(O)cc(O)cc3oc2=O)cc1 [Compound 35, 5,7-Dihydroxy-3-(4-methoxyphenyl)-coumarin] | caused significant decrease in the postprandial glycemia peak
2 | O=c1oc2ccc(O)cc2cc1-c1ccc(O)cc1 [Compound 17, 6-Hydroxy-3-(4-hydroxyphenyl)-coumarin] | caused significant decrease in the postprandial glycemia peak
